Data published in US20010009995A1, “Oxybutynin therapy” (priority 1998, published 2001).

Details: human, in vivo

CCNCC#CCOC(=O)C(O)(c1ccccc1)C1CCCCC1 (stereo not shown) [DESOXY, desethyloxybutynin]
t1/2 life of DESOXY compared to OXY: shorter
